# Results published in patent US20240279195A1, “SOLID STATE FORMS OF ABEXINOSTAT AND PROCESS FOR PREPARATION THEREOF” (TEVA PHARMACEUTICALS INTERNATIONAL GMBH, priority 2021, published 2024).
# Experiment: solid state stability of the crystalline form upon heating, pressure, grinding and exposure to humidity
# Format: physicochemical
row,Substance,stability of the crystalline form
1,Abexinostat fumarate [Form F3],stable
2,Abexinostat maleate [Form M1],stable
3,Abexinostat tosylate [Form T1],stable
